One data set has as its system B. subtilis ATCC 6633. Kind of data set: Inhibition zone, paper disk/agar diffusion. It counts as cell-based. Particulars: B. subtilis; Na = no activity. An excerpt: (§1) The antimicrobial activity performed at the bacteriology laboratory, Botany and Microbiology Department, Faculty of Science, Al-Azhar University, Cairo, Egypt. The inhibition zone (IZ) of the tested derivatives expressed as the diameter (mm) according to the agar plate diffusion method.

The test system of another data set is C. albicans (ATCC 10231). Kind of data set: Inhibition zone, paper disk/agar diffusion. It counts as cell-based. Conditions: Na = no activity.
From the text: as §1
For orientation: Agar diffusion results depend on both activity and mobility in agar.

The subject of another data set is E. coli ATCC 25922. The data set can be described thus: Inhibition zone, paper disk/agar diffusion. It is filed as cell-based. Conditions: E. coli; Na = no activity.
From the text: as §1

Another data set has as its system E. faecalis ATCC 29212. Kind of data set: Inhibition zone, paper disk/agar diffusion. Particulars: E. faecalis; Na = no activity. It counts as cell-based.
From the text: as §1

The subject of data set [1] is F. oxysporum (RCMB 008002). The data set can be described thus: Inhibition zone, paper disk/agar diffusion. It is filed as cell-based. Particulars: Na = no activity.
From the text: as §1

Another data set deals with P. aeruginosa ATCC 27853. The data set can be described thus: Inhibition zone, paper disk/agar diffusion. It counts as cell-based. Particulars: P. aeruginosa; Na = no activity.
From the text: as §1

A further data set relates to S. aureus ATCC 29213. Kind of data set: Inhibition zone, paper disk/agar diffusion. It counts as cell-based. Particulars: S. aureus; Na = no activity.
From the text: as §1

For the next data set, the system named is S. typhi ATCC 6539. Kind of data set: Inhibition zone, paper disk/agar diffusion. It is filed as cell-based. Conditions: S. typhi; Na = no activity.
From the text: as §1

In another data set the test system is spleen and thymus. Kind of data set: In vivo immunomodulation: immune organ weight and indexes. Conditions: mice. The text has this: Both the spleen and thymus have important antibacterial and fungal immune organ responses, and any change in weight, and indexes can reflect the level of immune regulation. Additionally, the relative spleen and thymus indexes are important indices for nonspecific immunity and potential immunomodulatory compounds that increase the spleen and thymus weight. This increase is due to immune cells’ stimulation in the spleen and thymus. […]

Data set [2] has as its system CD4+ and CD8+ T lymphocytes. Kind of data set: In vivo T lymphocyte subsets from peripheral blood, flow cytometry. Particulars: mice. The text has this:
Activation of immune cells as CD4^+ and CD8^+ T cells is one possible mechanism of a drug’s immune stimulus activity. An increase in these cells is thought to be a good indicator of an active immune response to infections. So, our work extended to study the effect of the most promising derivatives (2d, 8, and 11) on T lymphocyte subsets (CD4^+ and CD8^+) from peripheral blood, and determined the relative level in model mice that analyzed by flow cytometry after the period of treating.
In vitro intracellular killing activities for the most promising six derivatives 2a, 2b, 2d, 3a, 8, and 11 were performed according to reported methods.
(In general: Flow cytometry measures light scatter and fluorescence of single cells or particles in a stream.)

The structures appear in SMILES notation.

This is an account of results in article PMC7915026, “Sulfaguanidine Hybrid with Some New Pyridine-2-One Derivatives: Design, Synthesis, and Antimicrobial Activity against Multidrug-Resistant Bacteria as Dual DNA Gyrase and DHFR Inhibitors” (Antibiotics, 2021).

For the compound `N#CCC(=O)Nc1ccc(S(=O)(=O)NC(=N)N)cc1` [Compound 1, N-(4-(N-Carbamimidoylsulfamoyl)phenyl)-2-cyanoacetamide], the melting point (as a rule, the temperature, or range, at which the solid turns liquid) lay in the range of 172 to 174 °C. Further, the “Mean Diameter of the Inhibition Zone” value in the data set on B. subtilis ATCC 6633 worked out at 14 ± 0.70 mm. Further, the “Mean Diameter of the Inhibition Zone” value in the data set with C. albicans (ATCC 10231) is given as 15 ± 0.63 mm. Also, the “Mean Diameter of the Inhibition Zone” value in the data set on E. coli ATCC 25922 turned out to be 16 ± 0.35 mm. Further, in the data set with E. faecalis ATCC 29212, the “Mean Diameter of the Inhibition Zone” value stood at 19 ± 0.70 mm. For the same compound, in [1], the “Mean Diameter of the Inhibition Zone” value came to 13 ± 0.54 mm. In addition, in the data set on P. aeruginosa ATCC 27853, the “Mean Diameter of the Inhibition Zone” value stood at 20±0.65 mm. For the same compound, the “Mean Diameter of the Inhibition Zone” value in the data set with S. aureus ATCC 29213 amounted to 17 ± 0.50 mm. In the data set on S. typhi ATCC 6539, the “Mean Diameter of the Inhibition Zone” value stood at 17 ± 0.54 mm.

With `N#C/C(=C\c1ccc(O)cc1)C(=O)Nc1ccc(S(=O)(=O)NC(=N)N)cc1` [Compound 2c, N-(4-(N-Carbamimidoylsulfamoyl)phenyl)-2-cyano-3-(4-hydroxyphenyl) acrylamide], the melting point fell in the range of 256 to 258 °C. In the data set with B. subtilis ATCC 6633, the “Mean Diameter of the Inhibition Zone” value is on record as 20 ± 0.38 mm. Moreover, in the data set on C. albicans (ATCC 10231), the “Mean Diameter of the Inhibition Zone” value is reported as 16 ± 0.52 mm. Also, the “Mean Diameter of the Inhibition Zone” value with E. coli ATCC 25922 is recorded as 19 ± 0.75 mm. The “Mean Diameter of the Inhibition Zone” value with E. faecalis ATCC 29212 worked out at 17 ± 0.37 mm. In [1], the “Mean Diameter of the Inhibition Zone” value is recorded as 14 ± 0.5 mm. Moreover, in the data set with P. aeruginosa ATCC 27853, the “Mean Diameter of the Inhibition Zone” value turned out to be 20 ± 0.42 mm. Besides, the “Mean Diameter of the Inhibition Zone” value in the data set on S. aureus ATCC 29213 is given as 21 ± 0.85 mm. Also, the “Mean Diameter of the Inhibition Zone” value with S. typhi ATCC 6539 is given as 17 ± 0.24 mm.

`COc1ccc(-c2c(C#N)c(N)n(-c3ccc(S(=O)(=O)NC(=N)N)cc3)c(=O)c2C#N)cc1` [Compound 3b, 4-(6-Amino-3,5-dicyano-4-(4-methoxyphenyl)-2-oxopyridin-1(2H)-yl)-N-carbamimidoylbenzenesulfonamide]: the melting point fell in the range of 256 to 258 °C. For the same compound, in the data set with C. albicans (ATCC 10231), the “Mean Diameter of the Inhibition Zone” value was determined as 12 ± 0.36 mm. Also, in the data set on E. coli ATCC 25922, the “Mean Diameter of the Inhibition Zone” value came to 21 ± 0.11 mm. The “Mean Diameter of the Inhibition Zone” value with E. faecalis ATCC 29212 is 19 ± 0.65 mm. Besides, the “Mean Diameter of the Inhibition Zone” value in data set [1] was “no activity”. Besides, the “Mean Diameter of the Inhibition Zone” value in the data set with S. typhi ATCC 6539 is listed as 14 ± 0.16 mm.

`N#Cc1c(-c2ccc(O)cc2)c(C#N)c(=O)n(-c2ccc(S(=O)(=O)NC(=N)N)cc2)c1N` [Compound 3c, 4-(6-Amino-3,5-dicyano-4-(4-hydroxyphenyl)-2-oxopyridin-1(2H)-yl)-N-carbamimidoylbenzenesulfonamide] registered a melting point of 265 to 268 °C. Besides, the “Mean Diameter of the Inhibition Zone” value with C. albicans (ATCC 10231) is recorded as 22 ± 0.19 mm. In the data set with E. faecalis ATCC 29212, the “Mean Diameter of the Inhibition Zone” value is recorded as 19 ± 0.33 mm. For the same compound, the “Mean Diameter of the Inhibition Zone” value in data set [1] is on record as 19 ± 0.55 mm. In the data set with P. aeruginosa ATCC 27853, the “Mean Diameter of the Inhibition Zone” value worked out at 17 ± 0.20 mm. Moreover, the “Mean Diameter of the Inhibition Zone” value in the data set on S. typhi ATCC 6539 is reported as 20 ± 0.33 mm.

Regarding `COc1ccc(-c2c(C#N)c(N)n(-c3ccc(S(=O)(=O)NC(=N)N)cc3)c(=O)c2C#N)cc1O` [Compound 3d, 4-(6-Amino-3,5-dicyano-4-(3-hydroxy-4-methoxyphenyl)-2-oxopyridin-1(2H)-yl)-N-carbamimidoylbenzenesulfonamide], the melting point lay in the range of 250 to 252 °C. In the data set on B. subtilis ATCC 6633, the “Mean Diameter of the Inhibition Zone” value stood at 20 ± 0.11 mm. Also, the “Mean Diameter of the Inhibition Zone” value in the data set with C. albicans (ATCC 10231) worked out at 17 ± 0.21 mm. The “Mean Diameter of the Inhibition Zone” value in the data set on E. coli ATCC 25922 came out at 22 ± 0.43 mm. Besides, in the data set on E. faecalis ATCC 29212, the “Mean Diameter of the Inhibition Zone” value turned out to be 21 ± 0.54 mm. For the same compound, the “Mean Diameter of the Inhibition Zone” value in data set [1] is “no activity”. The “Mean Diameter of the Inhibition Zone” value with S. aureus ATCC 29213 was 23 ± 0.29 mm. The “Mean Diameter of the Inhibition Zone” value with S. typhi ATCC 6539 was determined as 15 ± 0.36 mm.

Consider `COc1ccc(-c2c(C(=O)Nc3ccc(S(=O)(=O)NC(=N)N)cc3)c(N)n(C3CCCCC3)c(=O)c2C#N)cc1` [Compound 4, 2-Amino-N-(4-(N-carbamimidoylsulfamoyl)phenyl)-5-cyano-1-cyclohexyl-4-(4-methoxyphenyl)-6-oxo-1,6-dihydropyridine-3-carboxamide], for which the melting point fell in the range of 272 to 274 °C. Besides, in the data set with B. subtilis ATCC 6633, the “Mean Diameter of the Inhibition Zone” value is listed as 23 ± 0.22 mm. In the data set with C. albicans (ATCC 10231), the “Mean Diameter of the Inhibition Zone” value was 20 ± 0.50 mm. Further, the “Mean Diameter of the Inhibition Zone” value in the data set with E. faecalis ATCC 29212 is given as 25 ± 0.35 mm. Further, the “Mean Diameter of the Inhibition Zone” value in data set [1] is “no activity”. Further, in the data set with P. aeruginosa ATCC 27853, the “Mean Diameter of the Inhibition Zone” value amounted to 23 ± 0.74 mm. For the same compound, in the data set with S. aureus ATCC 29213, the “Mean Diameter of the Inhibition Zone” value turned out to be 24 ± 0.33 mm. For the same compound, the “Mean Diameter of the Inhibition Zone” value in the data set with S. typhi ATCC 6539 is “no activity”.

The compound `N#Cc1c(N)cc(N)n(-c2ccc(S(=O)(=O)NC(=N)N)cc2)c1=O` [Compound 7, N-Carbamimidoyl-4-(4,6-diamino-3-cyano-2-oxopyridin-1(2H)-yl) benzenesulfonamide] yielded a melting point of 260 °C. Moreover, the “Mean Diameter of the Inhibition Zone” value in the data set on B. subtilis ATCC 6633 came to 13 ± 0.41 mm. The “Mean Diameter of the Inhibition Zone” value with C. albicans (ATCC 10231) was 13.0 ± 0.20 mm. The “Mean Diameter of the Inhibition Zone” value in the data set with E. faecalis ATCC 29212 was 14 ± 0.47 mm. Further, the “Mean Diameter of the Inhibition Zone” value in data set [1] is reported as “no activity”. The “Mean Diameter of the Inhibition Zone” value in the data set with P. aeruginosa ATCC 27853 is given as 12 ± 0.63 mm.

Turning to `N#Cc1c(N)n(-c2ccc(S(=O)(=O)NC(=N)N)cc2)c(=O)c2c(=N)oc3ccccc3c12` [Compound 12, 4-(2-Amino-1-cyano-5-imino-4-oxo-4H-chromeno[3,4-c]pyridin-3(5H)-yl)-N-cabamimidoylbenzenesulfonamide], the melting point was in the range of 266 to 268 °C. Besides, the “Mean Diameter of the Inhibition Zone” value in the data set with B. subtilis ATCC 6633 is listed as 15 ± 0.45 mm. For the same compound, the “Mean Diameter of the Inhibition Zone” value with C. albicans (ATCC 10231) is on record as 12 ± 0.50 mm. Moreover, the “Mean Diameter of the Inhibition Zone” value in the data set with E. coli ATCC 25922 was found to be 14 ± 0.21 mm. Also, the “Mean Diameter of the Inhibition Zone” value in the data set on E. faecalis ATCC 29212 came out at 12 ± 0.74 mm. The “Mean Diameter of the Inhibition Zone” value in data set [1] is reported as “no activity”.

For `O=C1O[C@H]([C@@H](O)CO)C(O)=C1O` [Vitamin C, vitamin C, reference compound], in the data set with spleen and thymus, the Spleen weight amounted to 260 ± 0.028 mg, the Thymus index is 0.633 ± 0.06 mg/g and the Thymus weight was 17.2 ± 0.31 mg. Also, in data set [2], the “T cells CD4+” value was determined as 76.74 ± 0.7% and the “T cells CD8+” value stood at 19.62 ± 0.21%.
